Measurements reported in patent publication US8377944B2, “Thienopyrimidine derivatives” (ASKA Pharmaceutical Co., Ltd., priority 2005, dated 2013).

Tests used:
[1] = target: T1, human recombinant PDE9 protein (Homo sapiens, UniProt O76083); assay: Measurement of PDE9-inhibiting activity; type: biochemical; conditions: human recombinant PDE9, [3H]-cGMP substrate; read-out: Inhibitory Activity (IC50 value) PDE 9
T1 construct: made in house; host or cells: COS-1 cells, transient transfection of pcDNA 3.1(+); supernatant of the cell homogenate
T1 sequence (O76083 whole entry): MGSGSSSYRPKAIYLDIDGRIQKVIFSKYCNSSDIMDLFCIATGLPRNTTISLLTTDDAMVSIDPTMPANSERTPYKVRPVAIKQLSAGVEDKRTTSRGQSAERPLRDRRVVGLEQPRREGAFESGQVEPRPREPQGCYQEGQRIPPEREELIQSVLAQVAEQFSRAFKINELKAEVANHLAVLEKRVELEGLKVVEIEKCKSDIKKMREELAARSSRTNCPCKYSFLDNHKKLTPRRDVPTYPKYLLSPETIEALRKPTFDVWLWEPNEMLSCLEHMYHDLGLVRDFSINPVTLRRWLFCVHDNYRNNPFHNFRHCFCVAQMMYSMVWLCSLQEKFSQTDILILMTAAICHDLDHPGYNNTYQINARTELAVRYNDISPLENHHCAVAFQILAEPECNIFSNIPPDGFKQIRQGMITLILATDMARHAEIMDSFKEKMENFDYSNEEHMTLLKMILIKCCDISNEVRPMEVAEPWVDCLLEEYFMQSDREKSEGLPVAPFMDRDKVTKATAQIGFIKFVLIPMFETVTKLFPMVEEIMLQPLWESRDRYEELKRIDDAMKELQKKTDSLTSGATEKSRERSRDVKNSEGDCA
Source text: (1) Measurement of PDE9-Inhibiting Activity:
1) Preparation of Human Recombinant PDE9 Protein
Based on the base sequence of hsPDE9A1 registered with GenBank database (accession No.: AF048837), hsPDE9A1 fragment was amplified by polymerase chain reaction under the following conditions, using the following sequence (Amasham Pharmacia Biotech) as the primer and Human Prostate […] cDNA library (CLONTECH) as the template DNA, with Pfu Turbo DNA polymerase ([…]):
hPDE9-5A primer: […] [SEQ ID NO: 1]
hPDE9-3A primer: […] [SEQ ID NO: 2]
PCR condition: [95° C., 5 min]×1 cycle, [(95° C., 1 min), (58° C., 2 min), (72° C., 3 min)]×25 cycle, [72° C., 10 min]×1 cycle
Thus obtained hsPDE9A1 fragment was given a restricted enzymatic treatment with NheI and NotI, and thereafter inserted into pcDNA 3.1(+) expression vector (Invitrogen) to let it serve as a human PDE9 expression vector.
Human PDE9 expression vector-transformed Escherichia coli was mass incubated to produce a large amount of PDE9 expression vector, which was transiently transfected into COS-1 cells, with LIPOFECTAMINE 2000 Reagent (GIBCO). […]
To 150 μL of buffer B (70 mmol/L Tris-HCl, pH7.5; 16.7 mmol/L MgCl2, 33.3 nmol/L [^3H]-cGMP) solution containing [^3H]-cGMP (specific activity=244.2 GBq/mmol) at a concentration of 33.3 nmol/L, 50 μL of a solution of the compound to be evaluated (formed by dissolving the compound in DMSO and diluting it with distilled water to DMSO concentration of 5%) and 50 μL of the PDE9 protein solution as prepared in the above, as diluted with buffer C (40 mmol/L Tris-HCl, pH7.5, 15 mmol/L benzamidine, 15 mmol/L 2-mercaptoethanol, 1 μg/mL Pepstatin A, 1 μg/mL Leupeptin) by 1,500×, were added under cooling with ice. […] Thereafter [^3H]-guanosine was eluted with 3 mL of 3 mol/L aqueous ammonia and its radiation activity was measured with liquid scintillation counter.
PDE9 inhibition of the tested compound can be calculated by the following formula: […]
From the inhibition ratios at various concentration levels of each tested compound, its IC50 value against PDE9 was determined.

[2] = target: T2, human recombinant PDE5 protein (Homo sapiens, UniProt O76074); assay: Measurement of PDE5-inhibiting activity; type: biochemical; conditions: human recombinant PDE5, [3H]-cGMP substrate; read-out: Inhibitory Activity (IC50 value) PDE 5
T2 construct: made in house; host or cells: COS-1 cells, transient transfection of pcDNA 3.1(+); supernatant of the cell homogenate
Source text: (2) Measurement of PDE5-Inhibiting Activity:
1) Preparation of Human Recombinant PDE5 Protein
Based on the base sequence of hsPDE5A1 registered with GenBank database (accession No.: NM_001083), hsPDE5A1 fragment was amplified by polymerase chain reaction under the following conditions, using the following sequence (SIGMA GENOSYS) as the primer and Human Prostate […] cDNA library (CLONTECH) as the template DNA, with KDD plus DNA polymerase (TOYOBO): […]
hPDE5-5′E primer: […] [SEQ ID NO: 3] […]
hPDE5-3′ primer: […] [SEQ ID NO: 4]
PCR condition: [94° C., 2 min]×1 cycle, [(94° C., 30 sec), (65° C., 30 sec), (68° C., 3 min)]×25 cycle, [68° C., 6 min]×1 cycle Thus obtained hsPDE5A1 fragment was given a restricted enzymatic treatment with XBaI and EcoRI, and thereafter inserted into pcDNA 3.1(+) expression vector (Invitrogen) to let it serve as a human PDE5 expression vector.
Human PDE5 expression vector-transformed Escherichia coli was mass incubated to produce a large amount of PDE5 expression vector, which was transiently transfected into COS-1 cells, with LIPOFECTAMINE 2000 Reagent (GIBCO). The cells were homogenized in ice-cooled buffer A and centrifuged at 4° C., 14,000×g for 10 minutes. The supernatant was isolated to provide human recombinant PDE5 protein solution.
2) Measurement of PDE5-Inhibiting Activity
By a method similar to the measurement of PDE9-inhibiting activity, PDE5-inhibiting activity of the test compounds was measured, their inhibition was calculated and IC50 value to PDE5 of each of the compounds was determined. The results are shown in the following Table A, concurrently with the compounds' IC50 values against PDE9.

IC50 [1]: 0.034 µM
IC50 [2]: 6.9 µM
SMILES: Cc1c(C(=O)O)sc2nc(Cc3ccc(Cl)s3)[nH]c(=O)c12 [Example 3, 2-(5-Chlorothiophen-2-ylmethyl)-5-methyl-4-oxo-3,4-dihydrothieno[2,3-d]pyrimidine-6-carboxylic acid]
